{"source": "patent US9809586B2", "about": "“Inhibitors of collagen prolyl 4-hydroxylase” (WISCONSIN ALUMNI RESEARCH FOUNDATION, priority 2015, dated 2017)", "key": {"[1]": {"settings": "titration of 20 μM FeSO4; bipy; read-out: Fe20-EC50; cited from earlier work"}, "[2]": {"settings": "cited from earlier work"}, "IRPs": {"tested_on": "IRPs", "test": "Electrophoretic mobility shift assay for IRE-binding by IRPs from treated cells", "type": "cell-based, human", "settings": "treated MDA-MB-231 cells, 24 h, radiolabeled RNA ligand", "experimental": "The resultant pellets (˜50 μL) were washed with PBS and then lysed using a protocol described previously.^41 Briefly, cell pellets were resuspended in 200 μL of cell lysis buffer, which was 20 mM Hepes-HCl buffer, pH 7.4, containing sodium pyrophosphate (10 mM), sodium fluoride (50 mM), β-glycerophosphate (50 mM), EDTA (5 mM), GTP (1 mM), sodium orthovanadate (1 mM), benzamidine hydrochloride (2 mM), Nonidet NP-40 (0.5% v/v), p-nitrophenyl p′-guanidinobenzoate-HCl (25 μg/mL), DTT (1 mM), leupeptin (40 μg/mL), pepstatin (4 μg/mL), SBTI (100 μg/mL), MG132 (10 μM), PMSF (200 μM), and BHT (5 μg/mL) by vortexing and lysed on ice by vortexing every few min. After 15 min, the lysates were centrifuged at 14,000 rpm and the supernatants aliquoted and stored at −80° C. until analysis by an electrophoretic mobility shift assay (EMSA).\nEMSAs were performed and quantified essentially as described previously.^42 Briefly [^32P]-L-ferritin IRE (1 nM RNA, specific radioactivity ˜7,000 dpm/fmol) was incubated with lysate protein (2.5 μg as determined by the Bradford assay) in binding buffer for 10 min on ice. Heparin was added (to 0.5 mg/mL), and the reaction mixture was incubated for an additional 5 min on ice before separating bound and free RNA on a nondenaturing polyacrylamide gel at ambient temperature."}, "P4HA1": {"tested_on": "P4HA1", "test": "Effect on P4HA1 levels (immunoblot)", "type": "cell-based, human", "settings": "MDA-MB-231", "experimental": "For investigations of P4HA1 levels, protein samples were treated and quantified as described above for iron metabolism except that the blots were probed with primary antibodies to human P4HA1 (rabbit polyclonal) from Thermo Fisher Scientific and human β-actin."}, "[3]": {"test": "Assay of Fe(II)-affinity for biheteroaryl ligands (Fe20-EC50 titration, spectrophotometry)", "type": "physicochemical", "settings": "Fe(II) 20 μM; highest concentration tested, not saturated", "experimental": "A library of biheteroaryl compounds (FIG. 2) was prepared and evaluated them as iron chelators in vitro. The library was assembled either from commercial vendors (pypyr and pyim) or by synthesis using palladium-catalyzed cross-coupling reactions (pypyraz, pypyrid, pyox, and pythi). To evaluate the iron affinity of these compounds in vitro, titration experiments were performed to determine the half-maximal concentration required to form a complex with 20 μM Fe(II) at pH 7.0.\nThe affinity of biheteroaryl ligands for Fe(II) was determined comparatively by measuring the half-maximal concentration (EC50) required for binding 20 μM Fe(II) (Fe20-EC50) in sodium phosphate buffer at pH 7. Stock solutions of ligands were prepared in either water for high affinity ligands (typically Fe20-EC50<1 mM) or DMSO for low affinity ligands (typically Fe20-EC50>1000 μM). Stock solutions of FeSO4 were prepared in H2O and used within 3 hours of preparation. […] For high affinity ligands, solutions were allowed to equilibrate for 15 min, after which the absorbance was recorded at the λmax for the complex under study. For most low affinity ligands, the corresponding Fe(II) complexes were unstable and observed to dissociate over time. Therefore, the absorbance value was determined within 30 s of mixing, where the absorbance was measured at the λmax for the complex under study. Complexes with pyox were not observed under these conditions. Absorbance values were corrected by subtracting the absorbance value in the absence of ligand. Dose-response curves were generated for each ligand by plotting the absorbance versus the log of the ligand concentration. Fe20-EC50 values for each ligand were interpolated from the dose-response curves by non-linear regression using the sigmoidal dose-response function in Prism. All experiments were performed in triplicate."}, "HEK293T cells": {"tested_on": "HEK293T cells", "test": "Effect on iron metabolism (immunoblots for ferritin, TfR, HIF-1α) in HEK293T cells", "type": "cell-based, human", "settings": "HEK cells; diethyl pyimDC at low levels", "protocol": "(§1) MDA-MB-231 or HEK293T cells were plated at 50,000 cells/well into 12-well plates and grown to confluence (˜24 h) as described in Section X. The cells were washed, and the medium was replaced with 1.0 mL of serum-free medium. Stock solutions of all test compounds were prepared at 100× in DMSO and added to a final concentration of 1× (0.1-0.5 mM). After addition of the test compound or DMSO vehicle, cells were incubated for 24 h. The cells were then washed with 100 μL MPER solution from Thermo Fisher Scientific (Waltham, Mass.) and collected. Protein concentrations were determined by BCA assay (Thermo Fisher Scientific), and samples corresponding to 40 μg total protein were analyzed by immunoblot.\n(§2) For all immunoblot analyses, protein samples where boiled in SDS-PAGE buffer, separated by electrophoresis through a Tris-glycine SDS-PAGE gel from Bio-Rad Laboratories (Hercules, Calif.), and subsequently transferred to a PVDF membrane for immunoblotting. All primary antibodies were used at the working dilution specified by the manufacturer. Primary antibodies were visualized using a complementary secondary antibody fused to horseradish peroxidase (HRP), with detection of HRP by chemiluminescence, imaging using an ImageQuant LAS 4000 (GE Healthcare), and quantification by densitometry (ImageJ software). The anti-rabbit antibody from Promega and the anti-mouse antibody from Abbiotec (San Diego, Calif.) were used at the working dilution specified by the manufacturer.\n(§3) For investigations of iron metabolism, protein samples (40 μg) were separated by SDS-PAGE through a 12% w/v acrylamide gel, and blots were probed with primary antibodies to human ferritin (rabbit monoclonal) from Abcam (Cambridge, Mass.), human transferrin receptor (mouse monoclonal) from Invitrogen, human HIF-1α (mouse monoclonal) from BD Biosciences, and human β-actin (rabbit monoclonal) from Cell Signaling Technology (Danvers, Mass.). Quantifications were normalized to the signal from β-actin, after which treated samples were compared to vehicle-treated controls."}, "[4]": {"tested_on": "MDA-MB-231 breast cancer cells", "test": "Effect on iron metabolism (immunoblots for ferritin, TfR, HIF-1α) in MDA-MB-231 cells", "protocol": "as §1, §2, §3"}, "MDA-MB-231 cells [5]": {"tested_on": "MDA-MB-231 cells", "test": "Effect on secretion of type I collagen into conditioned media", "type": "cell-based, human", "experimental": "For investigations of collagen secretion, protein samples were separated by SDS-PAGE through a 7.5% w/v acrylamide gel. Blots were first stained for total protein using Ponceau S, after which they were probed with a primary antibody to human type-I collagen (α1) (rabbit polyclonal) from Novus Biologicals (Littleton, Colo.).\nAfter the addition of a test compound or vehicle (DMSO), cells were incubated for 48 h, after which 1.0 mL of conditioned medium was removed and added to 4.0 mL of chilled acetone (−20° C.). The resultant mixtures were incubated for 3 h at −20° C., after which the precipitated protein was pelleted by centrifugation at 10,000 g for 30 min. The supernatants were discarded and the pellets dried briefly in a fume hood. Pellets were stored at −20° C. prior to analysis with an immunoblot."}, "MDA-MB-231 cells [6]": {"tested_on": "MDA-MB-231 cells", "test": "Cytotoxicity assay (MTS)", "type": "cell-based", "settings": "MDA-MB-231, 24 h; higher than aqueous solubility limit", "experimental": "The toxicity of esterified biheteroaryl compounds for human breast cancer cells was evaluated with the CellTiter 96® AQueous One Solution Cell Proliferation Assay (MTS) from Promega (Madison, Wis.). Briefly, MDA-MB-231 cells grown as described in Section X were plated at a concentration of 5,000 cells/well in a clear 96-well plate. The cells were allowed to adhere for 4 h, after which the medium was removed and discarded. Fresh medium was added and the cells were treated with varying concentrations of the test compound at 37° C. for 24 h. The medium was removed, and cells were washed with Dulbecco's PBS. The MTS reagent was added at a ratio of 1:5, and the cells were incubated at 37° C. for 2 h before measuring the absorbance at 490 nm. The average absorbance was measured in triplicate for each concentration tested, and the entire experiment was repeated in duplicate. The percentage of viable cells was determined by normalizing to a PBS control (100% viable), and a H2O2 control (0% viable). For all of the compounds tested, the LD50-value could not be measured due to its being higher than the aqueous solubility limit: diethyl bipy55′DC, LD50>100 μM; diethyl pyimDC, LD50>1000 μM; diethyl pythiDC, LD50>500 μM."}, "MDA-MB-231 cells [7]": {"tested_on": "MDA-MB-231 cells", "settings": "500 μM; cited from earlier work"}, "breast cancer": {"tested_on": "breast cancer", "settings": "mouse model of breast cancer, Gilkes et al.; cited from earlier work"}, "human CP4H1": {"biological_target": "T1, human CP4H1 (Homo sapiens, UniProt P13674)", "T1 construct": "made in house; host or cells: Origami B(DE3) Escherichia coli", "T1 sequence (P13674 18-534)": "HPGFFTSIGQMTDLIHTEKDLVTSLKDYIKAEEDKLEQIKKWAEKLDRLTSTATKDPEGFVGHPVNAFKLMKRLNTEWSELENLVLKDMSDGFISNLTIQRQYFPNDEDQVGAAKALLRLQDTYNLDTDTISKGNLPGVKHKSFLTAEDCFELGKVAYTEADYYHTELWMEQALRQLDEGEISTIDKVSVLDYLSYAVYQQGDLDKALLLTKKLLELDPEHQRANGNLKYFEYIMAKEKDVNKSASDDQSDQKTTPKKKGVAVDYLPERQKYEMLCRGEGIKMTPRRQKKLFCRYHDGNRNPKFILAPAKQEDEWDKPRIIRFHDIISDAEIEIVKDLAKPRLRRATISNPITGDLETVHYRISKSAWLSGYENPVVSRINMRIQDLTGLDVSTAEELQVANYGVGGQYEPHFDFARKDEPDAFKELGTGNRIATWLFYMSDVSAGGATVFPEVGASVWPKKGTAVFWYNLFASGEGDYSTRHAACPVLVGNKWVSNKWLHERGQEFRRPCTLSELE", "T1 sequence (P07237 18-508 partner)": "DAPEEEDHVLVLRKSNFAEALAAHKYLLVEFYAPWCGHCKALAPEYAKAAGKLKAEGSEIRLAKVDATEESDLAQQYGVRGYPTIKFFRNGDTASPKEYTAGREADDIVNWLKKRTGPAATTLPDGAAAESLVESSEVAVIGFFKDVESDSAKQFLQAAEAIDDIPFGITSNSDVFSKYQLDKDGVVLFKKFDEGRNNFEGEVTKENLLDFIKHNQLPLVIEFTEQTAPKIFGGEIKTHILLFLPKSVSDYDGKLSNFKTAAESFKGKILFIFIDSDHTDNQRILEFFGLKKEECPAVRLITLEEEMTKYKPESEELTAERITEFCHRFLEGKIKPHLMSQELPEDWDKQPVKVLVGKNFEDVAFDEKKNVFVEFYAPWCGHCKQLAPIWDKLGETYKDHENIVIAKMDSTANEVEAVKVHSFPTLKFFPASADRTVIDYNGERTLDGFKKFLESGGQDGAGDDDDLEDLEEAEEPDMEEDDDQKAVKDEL", "test": "Assay of human CP4H1 activity in the presence of inhibitors", "type": "biochemical", "experimental": "The catalytic activity of human CP4H1 was assayed as described previously.^35 Briefly, activity assays were carried out at 30° C. in 100 μL Tris-HCl buffer, pH 7.8, containing human CP4H1 (100 nM), inhibitor (0-500 μM), substrate (dansylGlyProProGlyOEt, 500 μM), FeSO4 (50 μM), BSA (1 mg/mL), catalase (0.1 mg/mL), sodium ascorbate (2 mM), DTT (100 μM), and α-ketoglutarate (100 μM). Reactions were pre-incubated with or without inhibitor for 2 min at 30° C., after which the reaction was initiated by the addition of α-ketoglutarate. After 15 min, reactions were quenched by boiling for 45 s and centrifuged at 10,000 g. The supernatant (20-50 μL) was injected into a Nucleodur® C18 Gravity reversed-phase column (4.6×250 mm, 5 μm particle size) from Macherey-Nagel (Bethlehem, Pa.). The column was eluted at 1 mL/min with a gradient (20 min) of aqueous acetonitrile (20-45% v/v) containing 0.1% v/v TFA. The absorbance of the eluent was monitored at 289 nm. All assays were performed in triplicate. Data are reported as activity relative to control reactions lacking inhibitor, where catalytic activity is determined from the percent conversion of substrate to product. Dose-response curves were generated for each inhibitor by plotting the relative activity versus the log of the inhibitor concentration. IC50-values for each inhibitor were interpolated from the data by non-linear regression using the sigmoidal dose-response function available in Prism."}, "human PHD2": {"biological_target": "T2, human PHD2 (Homo sapiens, UniProt Q9GZT9)", "T2 construct": "made in house", "T2 sequence (Q9GZT9 181-426 limits assumed)": "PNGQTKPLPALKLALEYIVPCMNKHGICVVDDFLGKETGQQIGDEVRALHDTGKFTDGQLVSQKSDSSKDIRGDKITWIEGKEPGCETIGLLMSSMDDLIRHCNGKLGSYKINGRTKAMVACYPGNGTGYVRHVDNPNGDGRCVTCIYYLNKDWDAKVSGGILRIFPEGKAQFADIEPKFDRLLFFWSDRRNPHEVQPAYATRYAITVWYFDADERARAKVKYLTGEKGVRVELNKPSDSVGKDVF", "test": "Assay of human PHD2 activity in the presence of inhibitors", "type": "biochemical", "settings": "10 μM compound", "experimental": "The catalytic activity of human PHD2 was assayed as described previously.^36 Briefly, activity assays were carried out at 30° C. in 100 μL Tris-HCl buffer, pH 7.8, containing human NHis6-PHD2181-426 (5 μM), inhibitor (0-50 μM), substrate (HIF-1α peptide556-574, 50 μM), FeSO4 (50 μM), BSA (1 mg/mL), catalase (0.3 mg/mL), sodium ascorbate (2 mM), DTT (1 mM), and α-ketoglutarate (35 μM). Reactions mixtures were pre-incubated with or without inhibitor for 2 min at 30° C., after which the reaction was initiated by the addition of α-ketoglutarate. After 10 minutes, reactions were quenched by boiling for 60 s and centrifuged at 10,000 g. The supernatant (50 μL) was injected into a Nucleodur® C18 Gravity reversed-phase column (4.6×250 mm, 5 μm particle size) from Macherey-Nagel (Bethlehem, Pa.). The column was eluted at 1 mL/min with a gradient (34 min) of 5-56% aqueous acetonitrile containing 0.1% v/v TFA. The absorbance of the eluent was monitored at 218 nm. All assays were performed in triplicate. Data is reported as activity relative to control reactions lacking inhibitor, where activity is determined from the percent conversion of substrate to product."}}, "note": "Like-named read-outs stand apart in the source and are kept apart here."}
{"smiles": "c1ccc(-c2ccccn2)nc1", "note": "[bipy, 2,2′-bipyridine, reference compound]", "values": [{"measurement": "EC50", "setting": "[1]", "result": "43 ± 2", "unit": "µM"}, {"measurement": "Heteroaryl pKa (ref.)", "setting": "[2]; conjugate acid of pyridine (bipy) or the nonpyridyl ring", "result": "5.2 (48)"}, {"measurement": "pKa", "setting": "[2]; conjugate acid of the entire compound, bipy", "result": 4.3}, {"measurement": "RNA binding by IRPs", "setting": "IRPs", "result": "significant increases"}]}
{"smiles": "CCOC(=O)c1ccc(-c2ncc(C(=O)OCC)[nH]2)nc1", "note": "[diethyl pyimDC, Ethyl 2-(5-ethoxycarbonyl-1H-imidazol-2-yl)pyridine-5-carboxylate]", "values": [{"measurement": "Levels of human CP4H1 (P4HA1) itself", "setting": "P4HA1", "result": "did not appear to affect"}, {"measurement": "EC50", "setting": "[3]", "result": "> 600", "unit": "µM"}, {"measurement": "Level of TFR, HIF-1α, or ferritin", "setting": "HEK293T cells", "result": "did not affect"}, {"measurement": "Accumulation of TFR or HIF-1α", "setting": "[4]; MDA-MB-231", "result": "without an associated accumulation"}, {"measurement": "Concentration at which no iron-deficient phenotype is observed", "setting": "[4]; MDA-MB-231, 24 h", "result": "≤ 56", "unit": "µM"}, {"measurement": "Iron-deficiency phenotype of treated cells", "setting": "[4]; MDA-MB-231, 24 h, EDHB 500 μM, diethyl pythiDC up to 500 μM", "result": "intermediate phenotype"}, {"measurement": "Ferritin levels", "setting": "[4]; MDA-MB-231, above 56 μM", "result": "significant decrease"}, {"measurement": "Efficacy on collagen secretion compared with diethyl bipy55′DC", "setting": "MDA-MB-231 cells [5]; MDA-MB-231", "result": "indistinguishable"}, {"measurement": "Level of secreted type I collagen", "setting": "MDA-MB-231 cells [5]; MDA-MB-231, 48 h, conditioned media", "result": "reduced the level of secreted collagen significantly"}, {"measurement": "LD50", "setting": "MDA-MB-231 cells [6]", "result": "> 1000", "unit": "µM"}, {"measurement": "RNA binding by IRPs", "setting": "IRPs", "result": "did not"}]}
{"smiles": "CCOC(=O)c1ccc(O)c(O)c1", "note": "[EDHB, Ethyl dihydroxybenzoate]", "values": [{"measurement": "Collagen secretion", "setting": "MDA-MB-231 cells [7]", "result": "diminish collagen secretion significantly"}, {"measurement": "Tumor fibrosis and metastasis", "setting": "breast cancer", "result": "decreases tumor fibrosis and metastasis"}, {"measurement": "RNA binding by IRPs", "setting": "IRPs", "result": "significant increases"}]}
{"smiles": "O=C(O)c1ccc(-c2ncc(C(=O)O)[nH]2)nc1", "note": "[pyimDC, 2-(5-Carboxy-1-H-imidazol-2-yl)pyridine-5-carboxylic Acid]", "values": [{"measurement": "Inhibition of catalytic activity of human CP4H1 in initial screen", "setting": "human CP4H1; 10 μM compound, 50 μM FeSO4", "result": "inhibitors"}, {"measurement": "IC50", "setting": "human CP4H1; dose-response, mean of three independent experiments", "result": "2.6 ± 0.1", "unit": "µM"}, {"measurement": "Potency relative to pyoxDC", "setting": "human CP4H1; from dose-response IC50 values", "result": "approximately 10 fold"}, {"measurement": "Inhibition of human PHD2 in screen", "setting": "human PHD2", "result": "only weakly"}]}
